Experiment [1] concerns the target T1, Alpha-2C adrenergic receptor (Homo sapiens, UniProt P18825).
T1 sequence (P18825 whole entry): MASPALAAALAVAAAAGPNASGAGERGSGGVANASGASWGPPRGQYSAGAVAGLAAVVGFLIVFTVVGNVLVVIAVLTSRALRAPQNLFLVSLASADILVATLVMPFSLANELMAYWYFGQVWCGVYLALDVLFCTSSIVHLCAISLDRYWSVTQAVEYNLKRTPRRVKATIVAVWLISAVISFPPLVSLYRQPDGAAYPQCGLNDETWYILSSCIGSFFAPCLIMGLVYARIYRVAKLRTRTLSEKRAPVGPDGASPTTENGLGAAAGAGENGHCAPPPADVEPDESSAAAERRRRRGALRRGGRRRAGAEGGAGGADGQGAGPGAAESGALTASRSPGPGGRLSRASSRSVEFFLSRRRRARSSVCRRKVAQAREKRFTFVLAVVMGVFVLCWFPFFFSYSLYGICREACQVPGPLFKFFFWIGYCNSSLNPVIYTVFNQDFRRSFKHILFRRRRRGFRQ
In words: Binding affinity to human cloned adrenergic alpha-2C receptor by radioligand binding assay.

The target in experiment [2] is T2, Alpha-1A adrenergic receptor (Homo sapiens, UniProt P35348).
T2 sequence (P35348 whole entry): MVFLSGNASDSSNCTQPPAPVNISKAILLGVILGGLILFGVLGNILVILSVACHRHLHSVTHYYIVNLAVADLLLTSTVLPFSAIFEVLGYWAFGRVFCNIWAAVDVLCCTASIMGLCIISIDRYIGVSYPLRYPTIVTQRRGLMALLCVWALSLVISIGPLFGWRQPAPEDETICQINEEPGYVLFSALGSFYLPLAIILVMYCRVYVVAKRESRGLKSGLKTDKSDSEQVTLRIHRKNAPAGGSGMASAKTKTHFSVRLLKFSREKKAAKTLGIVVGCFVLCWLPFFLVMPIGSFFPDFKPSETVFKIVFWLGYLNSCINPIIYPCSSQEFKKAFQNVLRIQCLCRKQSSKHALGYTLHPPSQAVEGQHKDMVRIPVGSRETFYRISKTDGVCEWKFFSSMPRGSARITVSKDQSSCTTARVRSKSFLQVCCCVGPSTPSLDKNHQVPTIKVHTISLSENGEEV
In words: Binding affinity to human cloned adrenergic alpha-1A receptor by radioligand binding assay.

For experiment [3], the target named is T3, Alpha-2B adrenergic receptor (Homo sapiens, UniProt P18089).
T3 sequence (P18089 whole entry): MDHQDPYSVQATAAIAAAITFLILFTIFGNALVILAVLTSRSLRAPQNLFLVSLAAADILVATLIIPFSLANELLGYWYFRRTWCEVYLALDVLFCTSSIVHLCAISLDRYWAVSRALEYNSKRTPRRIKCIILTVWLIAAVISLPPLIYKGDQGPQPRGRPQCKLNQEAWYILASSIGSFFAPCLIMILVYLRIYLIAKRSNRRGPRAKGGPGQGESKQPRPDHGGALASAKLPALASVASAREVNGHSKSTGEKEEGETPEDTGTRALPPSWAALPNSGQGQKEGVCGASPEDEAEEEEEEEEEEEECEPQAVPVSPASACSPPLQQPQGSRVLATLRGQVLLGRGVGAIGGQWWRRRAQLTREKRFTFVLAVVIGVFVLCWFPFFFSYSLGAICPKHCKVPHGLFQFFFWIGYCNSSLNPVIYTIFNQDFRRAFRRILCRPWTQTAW
In words: Binding affinity to human cloned adrenergic alpha-2B receptor by radioligand binding assay.

Experiment [4] concerns the target T4, Alpha-1B adrenergic receptor (Homo sapiens, UniProt P35368).
T4 sequence (P35368 whole entry): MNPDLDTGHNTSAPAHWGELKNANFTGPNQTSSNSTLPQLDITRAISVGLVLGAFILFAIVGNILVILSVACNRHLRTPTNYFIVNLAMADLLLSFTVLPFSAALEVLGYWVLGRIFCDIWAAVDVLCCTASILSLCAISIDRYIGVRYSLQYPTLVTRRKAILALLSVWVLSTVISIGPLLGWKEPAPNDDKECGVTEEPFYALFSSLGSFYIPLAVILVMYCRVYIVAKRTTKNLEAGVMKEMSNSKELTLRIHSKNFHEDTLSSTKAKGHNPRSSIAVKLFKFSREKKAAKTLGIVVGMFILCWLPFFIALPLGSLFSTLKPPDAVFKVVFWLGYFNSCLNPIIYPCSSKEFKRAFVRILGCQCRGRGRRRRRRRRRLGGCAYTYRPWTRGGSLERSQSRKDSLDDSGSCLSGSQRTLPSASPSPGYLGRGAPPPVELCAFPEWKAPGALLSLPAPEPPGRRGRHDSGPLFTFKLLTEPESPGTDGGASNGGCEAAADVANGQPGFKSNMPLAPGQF
In words: Binding affinity to human cloned adrenergic alpha-1B receptor by radioligand binding assay.

The target in experiment [5] is T5, Alpha-2A adrenergic receptor (Homo sapiens, UniProt P08913).
T5 sequence (P08913 whole entry): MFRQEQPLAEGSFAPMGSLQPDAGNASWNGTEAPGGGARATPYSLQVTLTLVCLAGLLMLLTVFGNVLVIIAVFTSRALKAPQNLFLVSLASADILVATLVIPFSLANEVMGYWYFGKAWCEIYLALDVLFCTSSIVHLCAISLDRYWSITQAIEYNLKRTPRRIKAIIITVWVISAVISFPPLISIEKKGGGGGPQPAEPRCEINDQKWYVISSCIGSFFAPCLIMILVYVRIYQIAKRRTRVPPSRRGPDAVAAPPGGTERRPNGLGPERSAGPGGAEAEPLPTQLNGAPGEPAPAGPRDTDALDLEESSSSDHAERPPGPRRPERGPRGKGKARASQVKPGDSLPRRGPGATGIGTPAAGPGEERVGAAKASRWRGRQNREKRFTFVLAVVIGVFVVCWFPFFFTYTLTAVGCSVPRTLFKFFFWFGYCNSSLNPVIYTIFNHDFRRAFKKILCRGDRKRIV
The experiment is described as follows: Binding affinity to human cloned adrenergic alpha-2A receptor by radioligand binding assay.

The target in experiment [6] is T6, 5-hydroxytryptamine receptor 2C (Homo sapiens, UniProt P28335).
T6 sequence (P28335 whole entry): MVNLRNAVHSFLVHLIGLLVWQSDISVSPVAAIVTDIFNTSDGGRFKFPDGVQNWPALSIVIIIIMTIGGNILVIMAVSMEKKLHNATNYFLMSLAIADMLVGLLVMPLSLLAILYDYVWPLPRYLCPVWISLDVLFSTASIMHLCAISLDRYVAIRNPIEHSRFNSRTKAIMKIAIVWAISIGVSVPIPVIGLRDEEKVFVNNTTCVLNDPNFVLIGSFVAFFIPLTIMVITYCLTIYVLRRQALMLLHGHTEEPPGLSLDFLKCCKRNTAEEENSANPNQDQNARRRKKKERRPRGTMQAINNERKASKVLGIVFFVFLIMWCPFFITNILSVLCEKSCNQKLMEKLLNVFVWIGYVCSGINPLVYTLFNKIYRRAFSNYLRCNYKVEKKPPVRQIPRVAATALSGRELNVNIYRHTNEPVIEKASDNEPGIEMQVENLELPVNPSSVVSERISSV
The experiment is described as follows: Binding affinity to human cloned 5HT2C receptor by radioligand binding assay.

The target of experiment [7] is T7, 5-hydroxytryptamine receptor 1A (Homo sapiens, UniProt P08908).
T7 sequence (P08908 whole entry): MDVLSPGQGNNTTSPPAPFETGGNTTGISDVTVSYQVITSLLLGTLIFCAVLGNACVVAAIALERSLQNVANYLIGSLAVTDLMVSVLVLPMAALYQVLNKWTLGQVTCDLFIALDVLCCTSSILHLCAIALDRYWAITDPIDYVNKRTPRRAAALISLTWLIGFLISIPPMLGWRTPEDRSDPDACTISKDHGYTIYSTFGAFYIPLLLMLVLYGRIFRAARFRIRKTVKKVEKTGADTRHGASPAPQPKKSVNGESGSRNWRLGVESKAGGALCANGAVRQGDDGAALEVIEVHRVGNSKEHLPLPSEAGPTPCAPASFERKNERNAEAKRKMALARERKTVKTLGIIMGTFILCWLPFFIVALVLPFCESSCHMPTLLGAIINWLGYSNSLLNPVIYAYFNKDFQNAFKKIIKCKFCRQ
The experiment is described as follows: Binding affinity to human cloned 5HT1A receptor by radioligand binding assay.

Experiment [8] deals with Mus musculus. In words: Inhibition of apomorphine-induced climbing in ip dosed Swiss Webster mouse. The format is functional.

The record followed here is ChEMBL document CHEMBL1148503, “Evaluation of the eutomer of 4-{3-(4-chlorophenyl)-3-hydroxypyrrolidin-1-yl}-1-(4-fluorophenyl)butan-1-one, {(+)-SYA 09}, a pyrrolidine analog of haloperidol” (Bioorg Med Chem Lett, 2006).

In general, Ki refers to the equilibrium dissociation constant of an inhibitor or competing ligand from its target. A lower Ki goes with a stronger hold on the target. As a reminder, the ED50 is the midpoint of the dose-response relation. Lower therefore signals greater potency.

As for `O=C(CCCN1C2CCC1CC(O)(c1ccc(Cl)cc1)C2)c1ccc(F)cc1` (stereo unspecified), the inhibition constant (Ki) in experiment [1] is 143 nM; in experiment [2], 39.3 nM; in experiment [3] it was 516 nM; in experiment [4] it was 42.7 nM; in experiment [5] it was 2830 nM.

Regarding `O=C(CCCN1CCC(O)(c2ccc(Cl)cc2)C1)c1ccc(F)cc1` (single isomer, unassigned; (+)), the Ki was determined as 115 nM in experiment [2], 3600 nM in experiment [6], 722 nM in experiment [7] and 102 nM in experiment [4]. The ED50 in experiment [8] came to 1.6 mg/kg.

With `O=C(CCCN1CCC(O)(c2ccc(Cl)cc2)C1)c1ccc(F)cc1` (stereo in doubt; 2b), the inhibitory constant (Ki) in experiment [2] turned out to be 34 nM; in experiment [6], 1250 nM; in experiment [7], 832 nM; in experiment [4], 41.7 nM.

`CN1CCN(C2=Nc3cc(Cl)ccc3Nc3ccccc32)CC1` [CLOZAPINE] returned an ED50 in experiment [8] of 5.54 mg/kg.

`O=C(CCCN1CCC(O)(c2ccc(Cl)cc2)CC1)c1ccc(F)cc1` [HALOPERIDOL] returned a median effective dose (ED50) in experiment [8] of 0.007 mg/kg. Compared with the last compound, the ED50 is about 790-fold lower.
